Source: ChEMBL document CHEMBL5465560, “Selectivity Literature for EUbOPEN Chemogenomic Library” (2024)
Blank lines part the entries; values can stand above or below the molecule they belong to.

Key:
[1] = target: Ribosomal protein S6 kinase alpha-6 (Homo sapiens, UniProt Q9UK32); experiment: Selectivity interaction (SelectScreen profiling (Invitrogen)) EUB0000607a RPS6KA6; conditions: at 2 µM
[2] = target: T1, Mitogen-activated protein kinase kinase kinase 3 (Homo sapiens) (UniProt Q99759); experiment: Selectivity interaction (ActivX KiNativ screen (kinase selectivity in THP-1 cell lysates)) EUB0000639a MAP3K3; format: subcellular; conditions: lysate, at 0.2 µM
T1 sequence (whole entry): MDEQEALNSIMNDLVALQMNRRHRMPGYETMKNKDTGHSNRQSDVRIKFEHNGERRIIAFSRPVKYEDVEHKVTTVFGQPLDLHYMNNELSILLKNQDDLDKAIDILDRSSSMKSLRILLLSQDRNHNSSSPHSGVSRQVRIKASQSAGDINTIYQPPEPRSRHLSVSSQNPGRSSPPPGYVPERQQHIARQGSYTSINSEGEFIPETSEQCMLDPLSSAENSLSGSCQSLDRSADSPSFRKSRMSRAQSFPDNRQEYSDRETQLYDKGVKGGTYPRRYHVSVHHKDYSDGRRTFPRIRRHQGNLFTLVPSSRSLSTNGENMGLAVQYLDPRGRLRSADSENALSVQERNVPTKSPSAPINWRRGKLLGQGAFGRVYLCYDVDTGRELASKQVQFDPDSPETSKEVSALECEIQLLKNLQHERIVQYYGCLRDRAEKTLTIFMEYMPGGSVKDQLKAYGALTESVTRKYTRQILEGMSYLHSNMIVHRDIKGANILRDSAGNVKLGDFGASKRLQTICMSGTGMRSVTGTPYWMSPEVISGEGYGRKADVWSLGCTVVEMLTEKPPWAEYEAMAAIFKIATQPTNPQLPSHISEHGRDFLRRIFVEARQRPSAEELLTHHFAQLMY

[3] = target: T2, Serine/threonine-protein kinase D3 (Homo sapiens) (UniProt O94806); experiment: Selectivity interaction (ActivX KiNativ screen (kinase selectivity in THP-1 cell lysates)) EUB0000639a PRKD3; format: subcellular; conditions: lysate, at 0.2 µM
T2 sequence (whole entry): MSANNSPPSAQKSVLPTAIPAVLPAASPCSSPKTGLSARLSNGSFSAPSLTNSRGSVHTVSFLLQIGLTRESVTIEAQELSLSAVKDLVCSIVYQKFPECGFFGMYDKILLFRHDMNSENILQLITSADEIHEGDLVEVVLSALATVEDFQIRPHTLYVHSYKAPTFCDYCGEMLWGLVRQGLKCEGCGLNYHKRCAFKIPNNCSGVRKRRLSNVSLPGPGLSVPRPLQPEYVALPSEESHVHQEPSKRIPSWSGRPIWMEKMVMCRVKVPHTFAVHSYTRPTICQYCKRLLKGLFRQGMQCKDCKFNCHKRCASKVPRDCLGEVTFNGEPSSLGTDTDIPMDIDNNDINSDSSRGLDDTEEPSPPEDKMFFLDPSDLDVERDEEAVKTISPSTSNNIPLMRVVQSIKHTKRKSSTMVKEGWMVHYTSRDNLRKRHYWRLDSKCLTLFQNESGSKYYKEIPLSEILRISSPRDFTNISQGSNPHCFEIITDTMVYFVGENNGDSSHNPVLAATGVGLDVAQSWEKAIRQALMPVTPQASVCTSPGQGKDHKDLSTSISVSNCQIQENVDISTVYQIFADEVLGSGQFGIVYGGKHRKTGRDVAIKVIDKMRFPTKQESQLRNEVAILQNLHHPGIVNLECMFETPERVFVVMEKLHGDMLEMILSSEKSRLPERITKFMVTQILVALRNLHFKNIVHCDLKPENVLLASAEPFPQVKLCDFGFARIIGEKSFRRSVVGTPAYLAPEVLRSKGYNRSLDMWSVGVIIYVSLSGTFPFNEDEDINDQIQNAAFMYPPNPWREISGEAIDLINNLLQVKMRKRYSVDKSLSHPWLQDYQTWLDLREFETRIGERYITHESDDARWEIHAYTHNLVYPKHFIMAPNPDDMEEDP

[4] = target: Serine/threonine-protein kinase VRK2 (Homo sapiens) (UniProt Q86Y07); experiment: Selectivity interaction (ActivX KiNativ screen (kinase selectivity in THP-1 cell lysates)) EUB0000639a VRK2; format: subcellular; conditions: lysate
[5] = target: Mitogen-activated protein kinase kinase kinase 11 (Homo sapiens) (UniProt Q16584); experiment: Selectivity interaction (ProQinase) EUB0000171b MAP3K11
[6] = target: Death-associated protein kinase 2 (Homo sapiens) (UniProt Q9UIK4); experiment: Selectivity interaction (KinomeScan (DiscoverX)) EUB0000655a DAPK2; conditions: at 10 µM
[7] = target: T3, Activin receptor type-1 (Homo sapiens) (UniProt Q04771); experiment: Selectivity interaction (KinomeScan (DiscoverX)) EUB0001079a ACVR1; conditions: at 1 µM
T3 sequence (whole entry): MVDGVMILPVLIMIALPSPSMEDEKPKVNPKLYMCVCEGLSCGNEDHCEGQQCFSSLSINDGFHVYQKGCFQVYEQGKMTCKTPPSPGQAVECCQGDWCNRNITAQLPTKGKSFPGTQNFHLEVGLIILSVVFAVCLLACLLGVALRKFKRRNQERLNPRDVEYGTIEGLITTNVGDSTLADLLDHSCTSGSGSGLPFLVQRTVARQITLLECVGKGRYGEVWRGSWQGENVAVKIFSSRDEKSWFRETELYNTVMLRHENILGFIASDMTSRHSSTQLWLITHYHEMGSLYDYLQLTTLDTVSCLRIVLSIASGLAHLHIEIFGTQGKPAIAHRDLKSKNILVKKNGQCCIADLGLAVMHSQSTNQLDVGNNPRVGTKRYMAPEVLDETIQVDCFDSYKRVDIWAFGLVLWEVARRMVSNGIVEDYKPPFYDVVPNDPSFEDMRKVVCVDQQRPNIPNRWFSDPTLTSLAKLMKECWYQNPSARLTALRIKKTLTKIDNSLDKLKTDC

[8] = target: Cyclin-dependent kinase 14 (Homo sapiens) (UniProt O94921); experiment: Selectivity interaction (KinomeScan (DiscoverX)) EUB0000229b CDK14; conditions: at 10 µM
[9] = target: Tyrosine-protein kinase Lyn (Homo sapiens, UniProt P07948); experiment: Selectivity interaction (KinomeScan (DiscoverX)) EUB0000229b LYN; conditions: at 10 µM
Tyrosine-protein kinase Lyn, sequence (P07948 2-512 limits assumed): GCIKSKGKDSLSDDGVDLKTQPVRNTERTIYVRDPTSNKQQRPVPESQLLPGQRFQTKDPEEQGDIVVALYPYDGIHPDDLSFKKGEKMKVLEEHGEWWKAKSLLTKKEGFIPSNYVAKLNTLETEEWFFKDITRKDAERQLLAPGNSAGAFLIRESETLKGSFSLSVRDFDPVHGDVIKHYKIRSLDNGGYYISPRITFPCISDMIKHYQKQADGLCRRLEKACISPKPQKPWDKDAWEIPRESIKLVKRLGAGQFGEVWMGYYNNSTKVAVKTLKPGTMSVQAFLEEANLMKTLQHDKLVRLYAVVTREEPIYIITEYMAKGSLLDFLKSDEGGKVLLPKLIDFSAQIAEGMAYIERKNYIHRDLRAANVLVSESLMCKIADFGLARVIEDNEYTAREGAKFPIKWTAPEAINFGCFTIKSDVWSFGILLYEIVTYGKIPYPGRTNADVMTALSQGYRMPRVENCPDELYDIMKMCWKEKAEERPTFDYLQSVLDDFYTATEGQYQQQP

Serine/threonine-protein kinase VRK2 (Homo sapiens), sequence (Q86Y07 whole entry): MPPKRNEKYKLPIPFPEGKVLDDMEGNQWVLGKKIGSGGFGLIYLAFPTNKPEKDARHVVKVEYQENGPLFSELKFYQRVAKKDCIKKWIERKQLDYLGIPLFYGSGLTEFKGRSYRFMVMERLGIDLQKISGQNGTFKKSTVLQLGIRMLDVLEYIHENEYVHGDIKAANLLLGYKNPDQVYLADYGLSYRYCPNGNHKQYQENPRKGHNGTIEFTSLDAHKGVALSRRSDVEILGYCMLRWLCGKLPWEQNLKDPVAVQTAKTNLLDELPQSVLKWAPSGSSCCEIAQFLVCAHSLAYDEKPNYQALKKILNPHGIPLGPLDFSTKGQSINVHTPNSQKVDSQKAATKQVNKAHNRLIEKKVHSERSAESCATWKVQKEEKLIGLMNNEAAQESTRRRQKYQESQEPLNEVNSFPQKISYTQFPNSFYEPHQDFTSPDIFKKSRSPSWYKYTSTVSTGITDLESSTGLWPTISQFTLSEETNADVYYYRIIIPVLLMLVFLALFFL
Mitogen-activated protein kinase kinase kinase 11 (Homo sapiens), sequence (Q16584 whole entry, looked up): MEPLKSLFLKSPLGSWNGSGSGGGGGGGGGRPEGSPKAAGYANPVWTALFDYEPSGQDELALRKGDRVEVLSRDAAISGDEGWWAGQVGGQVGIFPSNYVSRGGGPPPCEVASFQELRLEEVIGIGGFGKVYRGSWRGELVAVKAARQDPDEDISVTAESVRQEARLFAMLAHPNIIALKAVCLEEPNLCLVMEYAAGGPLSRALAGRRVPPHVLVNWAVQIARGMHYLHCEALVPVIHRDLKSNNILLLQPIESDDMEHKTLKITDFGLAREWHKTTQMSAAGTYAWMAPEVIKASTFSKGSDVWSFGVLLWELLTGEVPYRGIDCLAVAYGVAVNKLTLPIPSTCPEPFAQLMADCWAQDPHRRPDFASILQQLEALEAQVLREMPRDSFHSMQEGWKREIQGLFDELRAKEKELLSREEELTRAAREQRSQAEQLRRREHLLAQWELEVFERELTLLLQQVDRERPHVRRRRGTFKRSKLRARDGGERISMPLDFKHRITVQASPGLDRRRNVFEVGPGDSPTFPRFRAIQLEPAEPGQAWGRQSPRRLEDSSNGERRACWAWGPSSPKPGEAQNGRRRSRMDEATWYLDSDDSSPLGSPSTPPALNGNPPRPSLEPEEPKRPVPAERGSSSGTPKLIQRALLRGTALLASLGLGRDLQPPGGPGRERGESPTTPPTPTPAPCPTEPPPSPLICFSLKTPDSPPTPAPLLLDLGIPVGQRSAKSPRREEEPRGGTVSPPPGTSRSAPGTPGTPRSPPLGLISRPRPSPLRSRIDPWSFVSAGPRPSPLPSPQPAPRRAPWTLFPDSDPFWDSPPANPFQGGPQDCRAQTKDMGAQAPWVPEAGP
Cyclin-dependent kinase 14 (Homo sapiens), sequence (O94921 whole entry): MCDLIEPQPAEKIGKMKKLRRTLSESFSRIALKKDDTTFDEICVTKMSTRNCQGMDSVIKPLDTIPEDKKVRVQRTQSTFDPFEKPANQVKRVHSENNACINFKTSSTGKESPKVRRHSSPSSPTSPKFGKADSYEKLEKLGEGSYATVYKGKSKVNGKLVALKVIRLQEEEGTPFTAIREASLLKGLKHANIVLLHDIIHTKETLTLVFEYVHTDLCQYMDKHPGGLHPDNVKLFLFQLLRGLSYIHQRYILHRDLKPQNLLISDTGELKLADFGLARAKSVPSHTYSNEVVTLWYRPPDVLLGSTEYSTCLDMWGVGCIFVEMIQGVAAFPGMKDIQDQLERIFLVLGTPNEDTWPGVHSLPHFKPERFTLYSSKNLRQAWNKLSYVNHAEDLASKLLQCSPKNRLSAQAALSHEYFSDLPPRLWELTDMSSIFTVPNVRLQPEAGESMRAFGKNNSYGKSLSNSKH
Death-associated protein kinase 2 (Homo sapiens), sequence (Q9UIK4 whole entry, looked up): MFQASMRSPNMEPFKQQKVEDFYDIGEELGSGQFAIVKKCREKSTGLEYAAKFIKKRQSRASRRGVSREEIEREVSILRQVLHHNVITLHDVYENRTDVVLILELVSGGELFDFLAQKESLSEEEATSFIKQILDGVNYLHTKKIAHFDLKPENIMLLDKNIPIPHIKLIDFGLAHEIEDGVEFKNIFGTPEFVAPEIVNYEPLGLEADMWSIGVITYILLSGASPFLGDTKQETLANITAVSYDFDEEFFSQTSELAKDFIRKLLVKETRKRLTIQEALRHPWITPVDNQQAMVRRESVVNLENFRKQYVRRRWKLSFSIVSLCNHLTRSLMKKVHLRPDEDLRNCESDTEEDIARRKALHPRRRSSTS
Ribosomal protein S6 kinase alpha-6, sequence (Q9UK32 whole entry): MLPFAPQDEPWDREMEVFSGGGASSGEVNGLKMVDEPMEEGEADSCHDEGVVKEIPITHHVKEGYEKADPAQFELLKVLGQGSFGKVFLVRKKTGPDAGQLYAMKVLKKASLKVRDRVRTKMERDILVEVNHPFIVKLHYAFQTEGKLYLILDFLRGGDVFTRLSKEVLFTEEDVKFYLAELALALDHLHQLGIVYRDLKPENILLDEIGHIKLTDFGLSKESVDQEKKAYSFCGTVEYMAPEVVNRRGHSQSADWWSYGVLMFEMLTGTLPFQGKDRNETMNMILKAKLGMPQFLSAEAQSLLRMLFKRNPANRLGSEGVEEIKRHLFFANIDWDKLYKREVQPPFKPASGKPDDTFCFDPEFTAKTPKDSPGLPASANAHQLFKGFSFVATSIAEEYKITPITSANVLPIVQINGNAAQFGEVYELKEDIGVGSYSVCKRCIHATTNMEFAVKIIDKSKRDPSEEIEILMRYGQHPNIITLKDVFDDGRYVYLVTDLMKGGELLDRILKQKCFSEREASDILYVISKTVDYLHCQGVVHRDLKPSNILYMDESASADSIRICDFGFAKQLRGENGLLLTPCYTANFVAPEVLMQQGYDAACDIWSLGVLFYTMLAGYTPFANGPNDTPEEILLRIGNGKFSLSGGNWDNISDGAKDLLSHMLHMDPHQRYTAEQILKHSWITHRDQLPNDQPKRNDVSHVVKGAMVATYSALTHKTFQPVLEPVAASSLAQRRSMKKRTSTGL

Compound: CNC(=O)Nc1ccc(-c2nc(N3CC4CCC(C3)O4)c3cnn(C4CCC5(CC4)OCCO5)c3n2)cc1
- % of inhibition [1]: 12%

- % of inhibition [2]: -0.9%
- % of inhibition [3]: -4.6%
- % of inhibition ([4]; at 0.01 µM): -16.6%
- % of inhibition ([4]; at 0.04 µM): -6%
- % of inhibition ([4]; at 0.2 µM): -28.4%
- % of inhibition ([4]; at 1 µM): -14.8%
- % of inhibition ([4]; at 5 µM): 8.1%
Compound: CC[C@@H]1[C@H](F)C(=O)N[C@@H]1COc1nccc2cc(C(N)=O)c(OC)cc12 [ZIMLOVISERTIB]

- % of control ([5]; at 1 µM): 28%
- % of control ([5]; at 5 µM): 13%
Compound: C=CC(=O)Nc1cccc(C(=O)Nc2ccc(Nc3cc(-c4[nH]c(SC)nc4C)ccn3)cc2)c1

Compound: CN(C)CCOc1ccc(-c2nc(-c3ccncc3)c(-c3ccc4c(c3)CC/C4=N\O)[nH]2)cc1
- % of control [6]: 100%

Compound: Nc1cnc(N2CCc3cc(S(=O)(=O)Nc4c(F)cc(Cl)cc4F)cc(N4CCCC4=O)c32)nc1 [TP-020n]
- % of control [7]: 100%

Compound: COc1cc(N(C)c2ccnc3ccc(C(F)(F)F)cc23)cc(OC)c1OC
- % binding [8]: 92%
- % binding [9]: 96%
